Laboratory results as given in article PMC12420824, “Discovery of a selective alpha-kinase 1 inhibitor for the rare genetic disease ROSAH syndrome” (Nature Communications, 2025).

Target: T1, full-length ALPK1 (Homo sapiens, UniProt Q96QP1)
T1 construct: recombinant full-length ALPK1 kinase purified from Sf9 cells; 3xFlag (C); made in house; host or cells: Sf9 insect cells (baculovirus, pFAST-BAC)
Experiment: Thermal shift assay (TSA)
Assay type: binding
Conditions: pilot TSA screen / assay validation
Experimental: A small molecule library containing ~160,000 compounds (HTS Diversity V2) was prepared by WuXi AppTec (Shanghai, China) in 384 well thin-wall qPCR plates, with 20 nL of 10 mM compound preparations in each well. On each screening plate, 2 columns of wells were loaded with 20 nL of pure DMSO to leave spaces for negative controls (no compounds) and the positive control (AS-252424). […] The mixture was spun down at 1000 rpm for 1 min, then immediately applied to a protein melting reaction on a Roche LightCycler® 480 II Real-time PCR system, heating the mixture from 30 °C to 50 °C at the ramp rate of 0.02 °C/s while continuously acquiring the fluorescence signal. The melting temperature (Tm) of the ALPK1 protein with or without each compound was calculated using the Protein Thermal Shift™ Analysis Desktop Software v1.2 (Thermo Fisher Scientific). For positive control wells, 40 μM AS-252424 in 5 μl compound solvent was added manually and used as a positive control in the thermal shift screening.

T1 sequence (Q96QP1 whole entry): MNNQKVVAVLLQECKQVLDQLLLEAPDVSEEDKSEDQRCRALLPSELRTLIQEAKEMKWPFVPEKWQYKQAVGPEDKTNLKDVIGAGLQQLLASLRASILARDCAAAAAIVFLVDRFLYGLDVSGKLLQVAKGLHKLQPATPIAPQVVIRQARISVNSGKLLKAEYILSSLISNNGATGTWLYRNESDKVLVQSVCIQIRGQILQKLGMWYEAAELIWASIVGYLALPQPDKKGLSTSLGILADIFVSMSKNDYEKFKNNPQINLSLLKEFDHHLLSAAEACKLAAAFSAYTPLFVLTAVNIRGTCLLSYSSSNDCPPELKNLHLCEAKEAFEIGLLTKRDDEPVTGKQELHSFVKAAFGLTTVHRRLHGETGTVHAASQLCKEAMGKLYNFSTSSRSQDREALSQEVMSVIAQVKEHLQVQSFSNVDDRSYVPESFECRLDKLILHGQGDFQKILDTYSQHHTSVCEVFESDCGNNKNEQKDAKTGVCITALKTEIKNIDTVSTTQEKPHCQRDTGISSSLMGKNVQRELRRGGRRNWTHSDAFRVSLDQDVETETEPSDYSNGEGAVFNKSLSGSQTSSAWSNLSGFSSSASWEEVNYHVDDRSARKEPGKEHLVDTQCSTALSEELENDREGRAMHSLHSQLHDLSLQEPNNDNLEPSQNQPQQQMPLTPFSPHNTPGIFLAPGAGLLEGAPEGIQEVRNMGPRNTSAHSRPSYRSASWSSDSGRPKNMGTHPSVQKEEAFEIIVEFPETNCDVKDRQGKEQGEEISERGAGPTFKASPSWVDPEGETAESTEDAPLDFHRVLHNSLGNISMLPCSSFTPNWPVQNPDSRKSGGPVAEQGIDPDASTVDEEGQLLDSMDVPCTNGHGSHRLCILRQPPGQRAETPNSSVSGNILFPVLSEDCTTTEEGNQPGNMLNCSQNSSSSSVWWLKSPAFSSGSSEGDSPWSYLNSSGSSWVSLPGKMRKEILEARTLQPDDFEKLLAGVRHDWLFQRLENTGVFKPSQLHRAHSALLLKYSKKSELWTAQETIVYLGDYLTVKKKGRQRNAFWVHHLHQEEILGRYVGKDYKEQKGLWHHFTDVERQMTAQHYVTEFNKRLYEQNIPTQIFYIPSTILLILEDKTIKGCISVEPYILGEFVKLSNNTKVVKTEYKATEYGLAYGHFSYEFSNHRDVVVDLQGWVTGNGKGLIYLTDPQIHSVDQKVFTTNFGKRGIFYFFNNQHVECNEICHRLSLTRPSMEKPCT

In the case of `Nc1ncnc2c1ncn2[C@@H]1O[C@H](COP(=O)(O)OP(=O)(O)O)[C@@H](O)[C@H]1O` [ADP], the “increase in melting temperature (Tm)” value is reported as 1.4 °C.

Target: ALPK1 (Homo sapiens, UniProt Q96QP1)
Experiment: TR-FRET (HTRF) kinase assay
Conditions: 6.25 µM ATP, 20 nM ADP-D-heptose
Experimental: The 10 µL kinase reactions were allowed to proceed for 1.5 h at 27 °C. Kinase reactions were terminated by adding 10 µL of the HTRF KinEASE detection kit buffer (Cisbio, Bedford, MA, USA; 62SDBRDF) containing monoclonal anti-HA-Eu cryptate (Cisbio; 610HAKLB) and monoclonal Anti HA-d2 to each well. TIFA phosphorylation levels were monitored through the detection of oligomerization signals generated upon TIFAsome assembly. Both donor and acceptor antibodies recognize TIFA and will generate a TR-FRET signal when bound to the same TIFA oligomer formed upon TIFA phosphorylation. […] The TR-FRET signals were calculated as the ratio of the acceptor and donor emission signals with the formula below:
ALPK1 kinase activity was calculated as follows: % Activity = 100% × (TR-FRET signal of test compound - mean TR-FRET signal of no ATP 1% DMSO control) / (mean TR-FRET signal of 1% DMSO control – mean TR-FRET signal of no ATP 1% DMSO control).
In multi-dose assays, compound activity was calculated via logarithmic interpolation. Concentration-response curves were fitted with a four-parameter logistic nonlinear regression model and the IC50 values for these compounds were calculated in GraphPad Prism 6.

ALPK1, sequence (Q96QP1 whole entry): as above

In the case of `COc1ccccc1CNC(=O)Nc1nc(C2(c3ccccc3)CCC2)cs1` [Compound 8], the “HTRF Assay (IC50)” value is reported as “No activity”.
In the case of `COc1ccccc1CNC(=O)Nc1nc(C(C)(C)c2cccc(Br)c2)cs1` [Compound 6], the “HTRF Assay (IC50)” value is reported as “No activity”.
For `COc1ccccc1CNC(=O)Nc1nc(C2(c3ccccc3)CC2)cs1` [Compound 7], the “HTRF Assay (IC50)” value was “No activity”.

Same assay, conditions: read-out: HTRF Assay (IC50); 6.25 µM ATP, 20 nM ADP-D-heptose

In order of falling IC50:
1. O=C(NCc1ccc(N2CCNCC2)cc1)Nc1nc(C(CO)c2ccc(Br)cc2)cs1 (centres unmarked) [Compound 16]  5620 nM
2. COc1cccc2sc(NC(=O)c3c(F)cc(N4CCN(CCO)CC4)cc3F)nc12 [Compound 42]  5310 nM
3. O=C(NCc1ccccc1)Nc1nc(C2(c3ccccc3)CCCC2)cs1 [Compound 1]  5000 nM
4. COc1ccccc1CNC(=O)Nc1nc(C(C)c2ccccc2)cs1 (centres unmarked) [Compound 9]  3750 nM
5. COc1cccc2sc(NC(=O)c3c(F)cc(N4CCC(O)C4)cc3F)nc12 (centres unmarked) [Compound 39]  3190 nM
6. CC(C)(c1ccccc1)c1csc(NC(=O)NCc2ccccc2)n1 [Compound 2]  2500 nM
7. COc1cccc2sc(NC(=O)c3c(F)cc(N4CCC(CO)CC4)cc3F)nc12 [Compound 41]  2280 nM
8. COc1ccccc1CNC(=O)Nc1nc(C(C)(C)c2ccccc2)cs1 [Compound 4]  2200 nM
9. CC(C)(c1ccccc1)c1csc(NC(=O)NCc2ccccc2)n1 [Compound 3]  2100 nM
10. C#CC(C)(c1ccc(Cl)cc1)c1csc(NC(=O)c2c(F)ccc(OC)c2F)n1 (centres unmarked) [Compound 47]  1550 nM
11. COc1cccc2sc(NC(=O)c3c(F)cccc3F)nc12 [Compound 35]  1300 nM
12. O=C(Nc1nc(Cc2ccccn2)cs1)c1c(F)cc(N2CCNCC2)cc1F [Compound 60]  1270 nM
13. CC(C)(c1ccc(OC(F)(F)F)cc1)c1csc(NC(=O)NCc2ccc(N3CCNCC3)cc2)n1 [Compound 10]  1130 nM
14. COCCNC(=O)Nc1nc(C(C)(C)c2ccc(Br)cc2)cs1 [Compound 28]  1130 nM
15. COc1ccccc1CNC(=O)Nc1nc(C(C)(C)c2ccc(Br)cc2)cs1 [Compound 5]  1100 nM
16. CC(C)(c1ccc(F)cc1)c1csc(NC(=O)NCc2ccc(N3CCNCC3)cc2)n1 [Compound 14]  915 nM
17. C#CC(CC)(c1ccc(Br)cc1)c1csc(NC(=O)NCCO)n1 (centres unmarked) [Compound 32]  886 nM
18. CC(C)(c1ccc(O)cc1)c1csc(NC(=O)NCc2ccc(N3CCNCC3)cc2)n1 [Compound 22]  732 nM
19. CCOCC(C)(c1ccccc1)c1csc(NC(=O)c2c(F)cc(N3CCNCC3)cc2F)n1 (centres unmarked) [Compound 75]  642 nM
20. CC(c1ccccc1)(c1ccc(Cl)cc1)c1csc(NC(=O)c2c(F)cc(N3CCNCC3)cc2F)n1 (centres unmarked) [Compound 70]  577 nM
21. COc1cccc2sc(NC(=O)c3c(F)cc(OCCO)cc3F)nc12 [Compound 40]  560 nM
22. COCC(C)(c1ccc(Cl)cc1)c1csc(NC(=O)NCCO)n1 (centres unmarked) [Compound 33]  558 nM
23. COc1cccc2sc(NC(=O)c3c(F)cc(NCCN(C)C)cc3F)nc12 [Compound 37]  507 nM
24. Cc1cc(CNC(=O)Nc2nc(C(C)(C)c3ccc(Br)cc3)cs2)ccc1N1CCNCC1 [Compound 25]  462 nM
25. O=C(Nc1nc(C2(c3ccc(Br)cc3)CCCC2)cs1)c1c(F)cc(N2CCNCC2)cc1F [Compound 63]  437 nM
26. CCC(C)(c1ccc(Br)cc1)c1csc(NC(=O)NCc2ccc(N3CCNCC3)cc2)n1 (centres unmarked) [Compound 19]  429 nM
27. C#CC(C)(c1ccc(Cl)cc1)c1csc(NC(=O)c2c(F)cc(N3CCN(C)CC3)cc2F)n1 (centres unmarked) [Compound 51]  425 nM
28. C#CC(C)(c1ccc(Cl)cc1)c1csc(NC(=O)c2c(F)cc(NCCO)cc2F)n1 (centres unmarked) [Compound 52]  405 nM
29. CC(c1ccc(Br)cc1)c1csc(NC(=O)NCc2ccc(N3CCNCC3)cc2)n1 (centres unmarked) [Compound 17]  391 nM
30. COc1cccc2sc(NC(=O)c3c(F)cc(N4CCNC(C)C4)cc3F)nc12 (centres unmarked) [Compound 44]  349 nM
31. COc1cccc2sc(NC(=O)c3c(F)cc(N4CCN(Cc5ccccc5)C(=O)C4)cc3F)nc12 [Compound 36]  321 nM
32. C#CC(C)(c1ccc(Cl)cc1)c1csc(NC(=O)c2c(F)cc(N3CCNC(CO)C3)cc2F)n1 (centres unmarked) [Compound 55]  317 nM
33. C#CC(C)(c1ccc(Cl)cc1)c1csc(NC(=O)c2c(Cl)cc(N3CCNCC3)cc2Cl)n1 (centres unmarked) [Compound 53]  312 nM
34. CC(C)(c1ccc(I)cc1)c1csc(NC(=O)NCc2ccc(N3CCNCC3)cc2)n1 [Compound 15]  284 nM
35. CC(c1ccc(Cl)cc1)c1csc(NC(=O)c2c(F)cc(N3CCNCC3)cc2F)n1 (centres unmarked) [Compound 59]  270 nM
36. CC(C)(c1ccc(C#N)cc1)c1csc(NC(=O)NCc2ccc(N3CCNCC3)cc2)n1 [Compound 13]  236 nM
37. CC(C)(c1ccc(Br)cc1)c1csc(NC(=O)NCc2ccc(N3CCNCC3)c(Cl)c2)n1 [Compound 24]  233 nM
38. COc1cccc2sc(NC(=O)c3c(F)cc(N4CCNCC4)cc3F)nc12 [Compound 43]  209 nM
39. COCC(C)(c1ccccc1)c1csc(NC(=O)c2c(F)cc(N3CCNCC3)cc2F)n1 (centres unmarked) [Compound 62]  182 nM
40. C#CC(C)(c1ccc(Cl)cc1)c1csc(NC(=O)c2ccc(N3CCNCC3)nc2)n1 (centres unmarked) [Compound 46]  167 nM
41. COc1cc(CNC(=O)Nc2nc(C(C)(C)c3ccc(Br)cc3)cs2)ccc1N1CCNCC1 [Compound 26]  161 nM
42. CC(C)(c1ccc(C2CC2)cc1)c1csc(NC(=O)NCc2ccc(N3CCNCC3)cc2)n1 [Compound 12]  155 nM
43. C#CC(C)(c1ccc(Cl)cc1)c1csc(NC(=O)c2ccc(N3CCNCC3)cc2F)n1 (centres unmarked) [Compound 48]  151 nM
44. CC(C)(c1ccc(Br)cc1)c1csc(NC(=O)NCc2ccc(N3CCNCC3)c(F)c2)n1 [Compound 23]  138 nM
45. C#CC(C)(c1ccc(Br)cc1)c1csc(NC(N)=O)n1 (centres unmarked) [Compound 30]  130 nM
46. CC(C)(c1ccc(Br)cc1)c1csc(NC(=O)NCc2ccc(N3CCNCC3)cc2)n1 [Compound 18]  130 nM
47. COc1cccc2sc(NC(=O)c3c(F)cc(N4CCC(N)C4)cc3F)nc12 (centres unmarked) [Compound 38]  125 nM
48. COc1ccc(C(C)(C)c2csc(NC(=O)NCc3ccc(N4CCNCC4)cc3)n2)cc1 [Compound 20]  122 nM
49. C#CC(C)(c1ccc(OC)cc1)c1csc(NC(N)=O)n1 (centres unmarked) [Compound 31]  94 nM
50. COc1ccc(C(C)(C)c2csc(NC(=O)NCc3ccc(N4CCNCC4)c(F)c3)n2)cc1 [Compound 21]  84 nM
51. C#CC(CC)(c1ccc(Cl)cc1)c1csc(NC(=O)c2c(F)cc(N3CCNCC3)cc2F)n1 (centres unmarked) [Compound 66]  83 nM
52. C#CC(C)(c1csc(NC(=O)c2c(F)cc(N3CCNCC3)cc2F)n1)c1ccc(Cl)cc1F (centres unmarked) [Compound 65]  77 nM
53. C#CC(C)(c1ccc(OC(F)F)cc1)c1csc(NC(=O)c2c(F)cc(N3CCNCC3)cc2F)n1 (centres unmarked) [Compound 73]  73 nM
54. C#CC(C)(c1ccc(Br)cc1)c1csc(NC(=O)NCCO)n1 (centres unmarked) [Compound 29]  71 nM
55. C#CC(C)(c1ccc(Cl)cc1)c1csc(NC(=O)c2c(F)cc(N3CCNCC3CC)cc2F)n1 (centres unmarked) [Compound 58]  70 nM
56. C#CC(C)(c1ccc(Cl)cc1)c1csc(NC(N)=O)n1 (centres unmarked) [Compound 34]  48 nM
57. CC#CC(C)(c1ccc(Cl)cc1)c1csc(NC(=O)c2c(F)cc(N3CCNCC3)cc2F)n1 (centres unmarked) [Compound 69]  45 nM
58. CC(C)(c1ccc(Cl)cc1)c1csc(NC(=O)NCc2ccc(N3CCNCC3)cc2)n1 [Compound 11]  44 nM
59. COCC(C)(c1ccc(Cl)cc1)c1csc(NC(=O)c2c(F)cc(N3CCNCC3)cc2F)n1 (centres unmarked) [Compound 74]  42 nM
60. C#CC(C)(c1ccc(Cl)cc1)c1csc(NC(=O)c2ccc(N3CCNCC3)cc2)n1 (centres unmarked) [Compound 45]  38 nM
61. C#CC(C)(c1ccc(Cl)cc1)c1csc(NC(=O)c2c(F)cc(N3CCC(N)C3)cc2F)n1 (centres unmarked) [Compound 54]  31 nM
62. CC(c1ccc(Cl)cc1)(c1csc(NC(=O)c2c(F)cc(N3CCNCC3)cc2F)n1)C1CC1 (centres unmarked) [Compound 71]  25 nM
63. CC(C)(c1ccc(F)cc1)c1csc(NC(=O)c2c(F)cc(N3CCNCC3)cc2F)n1 [Compound 61]  23 nM
64. C#CC(C)(c1ccc(Cl)cc1)c1csc(NC(=O)c2c(F)cc(N3CCNCC3CO)cc2F)n1 (centres unmarked) [Compound 56]  20 nM
65. C#CC(C)(c1ccc(OC)cc1)c1csc(NC(=O)c2c(F)cc(N3CCNCC3)cc2F)n1 (centres unmarked) [Compound 72]  18 nM
66. C#CC(C)(c1ccc(Cl)c(F)c1)c1csc(NC(=O)c2c(F)cc(N3CCNCC3)cc2F)n1 (centres unmarked) [Compound 67]  17 nM
67. C#CC(C)(c1ccc(F)cc1)c1csc(NC(=O)c2c(F)cc(N3CCNCC3)cc2F)n1 (centres unmarked) [Compound 64]  14 nM
68. C#CC(C)(c1ccc(C)cc1)c1csc(NC(=O)c2c(F)cc(N3CCNCC3)cc2F)n1 (centres unmarked) [Compound 68]  13 nM

Same assay, conditions: read-out: IC50 in TR-FRET assay; 6.25 µM ATP, 20 nM ADP-D-heptose

In order of rising IC50:
1. Nc1nc(C2(c3ccccc3)CCCC2)cs1 [Hit 1]  4000 nM
2. COc1ccc(OC)c2sc(NC(=O)c3c(F)cccc3F)nc12 [Hit 2]  11000 nM
